Experimental data taken from patent US7122657B2, “UDP-glucose aglycon-glucosytransferase” (priority 1999, dated 2006).

Key:
[1] = tested on: glucosyltransferase activity of desalted crude etiolated Sorghum seedling extract; assay: Substrate specificity of desalted crude etiolated Sorghum seedling extract (TLC, 14C-UDP-glucose); assay type: biochemical, Sorghum bicolor; design: key: ▪: indicate that a radiolabelled product was visualised after incubation with the respective aglycone substrate; □: indicate that no radiolablled products could be detected under the experimental conditions employed; details: aglycone substrate
Description: (§1) Generally a 20 μl reaction mixture including • 100 mM Tris HCl (pH 7.9), • 1–5 μM ^14C-UDP-glucose (11.0 GBq mmol^−1, Amersham LIFE SCIENCE), • 0–300 μM UDP-glucose, • 0–20 mM p-hydroxymandelonitrile (dissolved in water, freshly prepared), • 25 mM γ-gluconolactone, • 0–1 mg BSA and • 0.5–10 μl of protein preparation, is incubated at 30° C. between 2 minutes and 2 hours. Thereafter the reaction is terminated by the addition of 1/10 of the reaction volume of 10% acetic acid. The same assay conditions are used to determine the glucosylation of mandelonitrile, benzoic acid, benzylalcohol, geraniol and a number of other aglycons.
(§2) For TLC analysis the reaction mixture is applied to Silica Gel 60 F254 plates (Merck), dried and eluted in a solvent containing ethyl acetate:acetone:dichloromethane:methanol:[…] (40:30:12:10:8, v/v). Plates are dried for one hour at room temperature and exposed to storage phosphorlmaging plates (Molecular Dynamics) prior to scanning on a Storm 860 Phosphorimager (Molecular Dynamics).
(§3) Substrate Specificity of Recombinant sbHMNGT Compared to Desalted Crude Etiolated Sorghum Seedling Extract
(§4) Glucosyltransterase activity was determined by TLC using ^14C-UDP-glucose. Filled boxes in Table 1 below (▪) indicate that a radiolabelled product was visualised after incubation with the respective aglycone substrate. Empty boxes (□) indicate that no radiolablled products could be detected under the experimental conditions employed. Figures in brackets indicate the relative Vmax for each aglycon with calculated standard deviations.

[2] = biological target: T1, recombinant sbHMNGT (UDP-glucose:p-hydroxymandelonitrile-glucosyltransferase) (Sorghum bicolor, UniProt Q9SBL1); assay: Substrate specificity of recombinant sbHMNGT (TLC, 14C-UDP-glucose); assay type: biochemical; design: key to ACTIVITY Recombinant sbHMNGT (radiolabelled glucoside product): ▪: indicate that a radiolabelled product was visualised after incubation with the respective aglycone substrate; □: indicate that no radiolablled products could be detected under the experimental conditions employed; details: for ACTIVITY Recombinant sbHMNGT (radiolabelled glucoside product): 1.25 mM aglycone, 100 ng recombinant sbHMNGT, 20 min at 30° C., TLC
T1 construct: are used to amplify a 1500 bp full-length sbHMNGT insert by PCR; made in house; host or cells: E. coli JM109, vector pSP19g10L
Description: as §1
To determine the substrate specificity of recombinant sbHMNGT incubation lasts for 20 min at 30° C. and the general protocol above is adapted to include • 1.25 mM aglycone (dissolved in ethanol except for flavonoids which are dissolved in ethylene glycol monoether), • 1.25 μM ^14C-UDP-glucose, • 12.5 μM UDP-glucose, • 100 ng recombinant sbHMNGT, and • 4 μg BSA.
as §2, §3, §4

sbHMNGT [3] = biological target: T2, sbHMNGT (Sorghum bicolor, UniProt Q9SBL1); assay: Quantitative determination of the activity of recombinant sbHMNGT (Vmax); assay type: biochemical; design: are used to amplify a 1500 bp full-length sbHMNGT insert by PCR; made in house; host or cells: E. coli JM109, vector pSP19g10L; details: for relative Vmax with calculated standard deviations: relative to p-hydroxymandelonitrile, 1, 5 or 10 mM aglycone, 4 minutes at 30° C.
Description: as §1
Quantitative determination of the activity of recombinant sbHMNGT is carried out using 4 minutes incubation at 30° C. Analyses are carried out as for the determination of substrate specificity except that the reaction mixtures are composed as folows: • 1, 5 or 10 mM aglycone, • 5 μM ^14C-UDP-glucose, • 0.2 mM UDP-glucose, • 200 ng recombinant sbHMNGT, and • 24 μg BSA.
as §4

sbHMNGT [4] = biological target: T2, sbHMNGT; assay: sbHMNGT activity assay during purification (LSC); assay type: biochemical; design: from tissue; host or cells: etiolated Sorghum bicolor seedling shoots; ammonium sulphate, Q-sepharose and Reactive Yellow 3 fractions; details: native sbHMNGT
Description: as §1
For analysis by liquid scintillation counting (LSC) reaction mixtures are extracted with 400 μl of ethyl acetate to separate glucosides from unincorporated ^14C-UDP-glucose. 2 ml of Ecoscint A (National Diagnostics, New Jersey, USA) are added to 250 μl of each ethyl acetate extract and analyzed using a Win Spectral 1414 (Wallac) liquid scintillation counter. Mandelonitrile is used as substrate to assay fractions generated by liquid chromatography.
Except where indicated all steps are carried out at 4° C. […] Furthermore, the absence of a hydroxyl group at the para-position of the benzene ring rules out the possibility of p-glucosyloxymandelonitrile synthesis, which would be indistinguishable from dhurrin using the LSC assay.

T1 sequence (Q9SBL1 whole entry): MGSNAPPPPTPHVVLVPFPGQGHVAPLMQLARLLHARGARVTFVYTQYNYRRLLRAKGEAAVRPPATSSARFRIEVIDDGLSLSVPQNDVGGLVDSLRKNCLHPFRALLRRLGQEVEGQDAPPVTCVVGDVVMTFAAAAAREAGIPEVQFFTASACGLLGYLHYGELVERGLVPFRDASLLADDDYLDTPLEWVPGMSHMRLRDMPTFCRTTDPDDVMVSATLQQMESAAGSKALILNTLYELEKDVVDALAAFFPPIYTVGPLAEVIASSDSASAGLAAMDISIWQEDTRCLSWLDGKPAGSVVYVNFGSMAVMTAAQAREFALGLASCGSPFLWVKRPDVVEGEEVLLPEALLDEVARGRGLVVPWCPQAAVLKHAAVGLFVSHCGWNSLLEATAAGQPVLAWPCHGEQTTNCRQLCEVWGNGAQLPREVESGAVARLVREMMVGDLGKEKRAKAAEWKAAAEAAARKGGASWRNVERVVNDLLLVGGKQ
T2 sequence (Q9SBL1 whole entry): as above

Row | Structure (SMILES) | ACTIVITY Crude Sorghum extract (radiolabelled glucoside product) [1] | ACTIVITY Recombinant sbHMNGT (radiolabelled glucoside product) [2] | ability of sbHMNGT to glucosylate the aglycon [2] | rate of glucosylation compared with the cyanohydrins (sbHMNGT [3]) | relative Vmax with calculated standard deviations (sbHMNGT [3]; recombinant sbHMNGT) | substrate quality compared with p-hydroxymandelonitrile (sbHMNGT [4]) | Vmax (sbHMNGT [3]; recombinant sbHMNGT)
1 | C[C@H]1CC[C@]2(NC1)O[C@H]1C[C@H]3[C@@H]4CC[C@H]5C[C@@H](O)CC[C@]5(C)[C@H]4CC[C@]3(C)[C@H]1[C@@H]2C [tomatidine] | ▪ | □ | – | – | – | – | –
2 | OCc1ccccc1 [benzyl alcohol] | ▪ | ▪ | glucosylate | lower than those observed for the cyanohydrins | (13.1 ± 2.1%) | – | –
3 | O=C(O)C(O)c1ccc(O)cc1 (centres unmarked) [p-hydroxymandelic acid] | ▪ | □ | – | – | – | – | –
4 | CCC=C(C)CCO [3-methyl-3-hexen-1-ol] | ▪ | ▪ | – | – | – | – | –
5 | COc1cc(C(=O)O)ccc1O [vanillic acid] | ▪ | ▪ | glucosylate | – | – | – | –
6 | O=C(O)/C=C/c1ccc(O)c(O)c1 [caffeic acid] | ▪ | □ | – | – | – | – | –
7 | N#CC(O)c1ccccc1 (centres unmarked) [mandelonitrile] | ▪ | ▪ | – | – | (77.8 ± 8.6%) | equally good substrate | –
8 | CC(C)(O)C#N [acetone cyanohydrin] | □ | □ | – | – | – | – | –
9 | O=c1c(O)c(-c2ccc(O)c(O)c2)oc2cc(O)cc(O)c12 [quercetin] | ▪ | □ | – | – | – | – | –
10 | O=C(O)c1ccccc1 [benzoic acid] | ▪ | ▪ | glucosylate | lower than those observed for the cyanohydrins | (4.2 ± 0.8%) | – | –
11 | CCCCCCO [1-hexanol] | ▪ | ▪ | – | – | – | – | –
12 | O=C(O)C=Cc1ccccc1O [2-hydroxy cinnamic acid] | ▪ | □ | – | – | – | – | –
13 | CCCC(C)=CCO [3-methyl-2-hexen-1-ol] | ▪ | ▪ | – | – | – | – | –
14 | CC(C)=CCC/C(C)=C/CO [geraniol] | ▪ | ▪ | glucosylate | lower than those observed for the cyanohydrins | (11.0 ± 0.5%) | – | –
15 | COc1cc(C=O)ccc1O [vanillin] | ▪ | ▪ | glucosylate | – | – | – | –
16 | Oc1ccc(O)cc1 [hydroquinone] | ▪ | □ | – | – | – | – | –

Row | Structure (SMILES) | ACTIVITY Crude Sorghum extract (radiolabelled glucoside product) [1] | ACTIVITY Recombinant sbHMNGT (radiolabelled glucoside product) [2] | ability of sbHMNGT to glucosylate the aglycon [2] | rate of glucosylation compared with the cyanohydrins (sbHMNGT [3]) | relative Vmax with calculated standard deviations (sbHMNGT [3]; recombinant sbHMNGT) | substrate quality compared with p-hydroxymandelonitrile (sbHMNGT [4]) | Vmax (sbHMNGT [3]; recombinant sbHMNGT)
17 | CC/C=C\CCO [cis-3-hexen-1-ol] | ▪ | ▪ | – | – | – | – | –
18 | O=Cc1ccc(O)cc1 [p-hydroxybenzaldehyde] | ▪ | □ | – | – | – | – | –
19 | N#CC(O)c1ccc(O)cc1 (centres unmarked) [p-hydroxymandelonitrile] | ▪ | ▪ | – | – | (100 ± 7.2%) | – | 1500 mol of product/mol of sbHMNGT/sec
20 | O=C(O)c1ccc(O)cc1 [p-hydroxybenzoic acid] | ▪ | □ | – | – | – | – | –
21 | CCC/C=C/CO [trans-2-hexen-1-ol] | ▪ | ▪ | – | – | – | – | –
22 | Oc1ccc(C=Cc2cc(O)cc(O)c2)cc1 [resveratrol] | ▪ | □ | – | – | – | – | –
23 | COc1cccc(CO)c1O [2-hydroxy-3-methoxybenzlalcohol] | ▪ | ▪ | glucosylate | – | – | – | –
24 | O=C(O)c1ccccc1O [salicylic acid] | ▪ | □ | – | – | – | – | –
25 | OCc1ccc(O)cc1 [p-hydroxybenzyl alcohol] | ▪ | ▪ | – | – | – | – | –
26 | COc1ccc(-c2coc3cc(O)cc(O)c3c2=O)cc1 [biochanin A] | ▪ | □ | – | – | – | – | –
27 | CC(C)=CCC/C(C)=C\CO [nerol] | ▪ | ▪ | glucosylate | – | – | – | –
28 | O=C(O)c1cc(O)ccc1O [gentisic acid] | □ | □ | – | – | – | – | –
29 | O=C1C[C@@H](c2ccc(O)cc2)Oc2cc(O)cc(O)c21 [naringenin] | ▪ | □ | – | – | – | – | –
30 | O=c1cc(-c2ccc(O)cc2)oc2cc(O)cc(O)c12 [apigenin] | ▪ | □ | – | – | – | – | –
31 | CC(C)=CCCC(C)CCO (centres unmarked) [p-citronellol] | ▪ | ▪ | glucosylate | – | – | – | –
